Structures are written as SMILES.

Data set [1] relates to A549. Description: Cytotoxicity against human A549 cells after 72 hrs by MTT assay. Type of data set: functional, cell-based. Particulars: A549, 72 h.
For data set [2], the system named is HCT-116. Description: Cytotoxicity against human HCT116 cells after 72 hrs by MTT assay. Conditions: HCT-116, 72 h. Type of data set: functional, cell-based.
In data set [3] the test system is PC-3. Nature of the data set: Cytotoxicity against human PC3 cells after 72 hrs by MTT assay. Type of data set: functional, cell-based. Conditions: PC-3, 72 h.
The test system of the next data set is THP-1. Description: Cytotoxicity against human THP1 cells after 72 hrs by MTT assay. Type of data set: functional, cell-based. Particulars: THP-1, 72 h.
The next data set has as its system Jurkat. Description: Cytotoxicity against human Jurkat cells after 72 hrs by MTT assay. Type of data set: functional, cell-based.
Data set [4] relates to NCI-H929. Nature of the data set: Cytotoxicity against human NCI-H929 cells after 72 hrs by MTT assay. Type of data set: functional, cell-based. Particulars: NCI-H929, 72 h.
In the next data set the test system is MCF7. Description: Cytotoxicity against human MCF7 cells after 72 hrs by MTT assay. Type of data set: functional, cell-based. Conditions: MCF7, 72 h.
Another data set relates to RPMI-8226. Nature of the data set: Cytotoxicity against human RPMI8226 cells after 72 hrs by MTT assay. Type of data set: functional, cell-based. Particulars: RPMI-8226, 72 h.
The test system of another data set is K562. Description: Cytotoxicity against human K562 cells after 72 hrs by MTT assay. Type of data set: functional, cell-based. Conditions: K562, 72 h.
The test system of the next data set is HEF. Description: Cytotoxicity against HEF after 72 hrs by MTT assay. Type of data set: cell-based. Conditions: Homo sapiens.
The subject of data set [5] is PC-3. Nature of the data set: Potency index, ratio of PPA IC50 to test compound IC50 for human PC3 cells. Type of data set: functional.
Data set [6] concerns NCI-H929. Description: Potency index, ratio of etoposide IC50 to test compound IC50 for human NCI-H929 cells. Type of data set: functional.
Data set [7] is described as follows: Therapeutic index, ratio of IC50 for HEF to IC50 for human NCI-H929 cells. Conditions: HEF cells versus NCI-H929 cells, read-out: Ratio IC50. Type of data set: toxicity.
Data set [8] concerns A549. Nature of the data set: Potency index, ratio of PPA IC50 to test compound IC50 for human A549 cells. Type of data set: functional.
In data set [9] the test system is A549. Nature of the data set: Potency index, ratio of etoposide IC50 to test compound IC50 for human A549 cells. Type of data set: functional.
The subject of data set [10] is NCI-H929. Description: Potency index, ratio of PPA IC50 to test compound IC50 for human NCI-H929 cells. Type of data set: functional.
Data set [11] can be described thus: Therapeutic index, ratio of IC50 for HEF to IC50 for human HCT116 cells. Conditions: HEF cells versus HCT116 cells, read-out: Ratio IC50. Type of data set: toxicity.
In data set [12] the test system is HCT-116. Nature of the data set: Potency index, ratio of PPA IC50 to test compound IC50 for human HCT116 cells. Type of data set: functional.

With `COc1cc([C@@H]2c3cc4c(cc3[C@@H](O[C@@H]3O[C@@H]5CO[C@@H](C)O[C@H]5[C@H](O)[C@H]3O)[C@H]3COC(=O)[C@H]23)OCO4)cc(OC)c1O` [ETOPOSIDE], the half-inhibitory concentration (IC50) in the data set on A549 [1] was 100 µM; in the data set with HCT-116 [2], 22 µM; in the data set with PC-3 [3], 2.7 µM; in the data set on THP-1, 1 µM; in the data set with Jurkat, 1.4 µM; with NCI-H929 [4], 0.9 µM. In addition, the IC50 in the data set with MCF7 is 9.6 µM; in the data set on RPMI-8226, 4.8 µM; in the data set on K562, 9.4 µM; with HEF, over 100 µM.

As for `C=C1C2=C(C(=O)N1OC)[C@@H](F)[C@@](C)(O)[C@H](CCCCC)O2`, the IC50 with A549 [1] stood at 42 µM; with HCT-116 [2] it was 31 µM; in the data set with PC-3 [3], 12 µM; with THP-1, 19 µM; in the data set with Jurkat it was 15 µM; in the data set on NCI-H929 [4], 3.9 µM. Also, the IC50 with MCF7 is 37 µM; in the data set on RPMI-8226, 16 µM; with K562, 18 µM; with HEF, 37 µM. Also, in the data set with PC-3 [5], the “Ratio IC50” value came to 3.

For the molecule `C=C1C2=C(C(=O)N1OC)[C@H](OC(=O)CSc1nc3ccccc3o1)[C@@](C)(O)[C@H](CCCCC)O2`, the half-inhibitory concentration (IC50) came to 20 µM with A549 [1]; 4.9 µM with HCT-116 [2]; 5.8 µM in the data set with PC-3 [3]; 2.3 µM in the data set with THP-1; 2.6 µM with Jurkat; 3 µM in the data set on NCI-H929 [4]. The IC50 was 3.9 µM in the data set on MCF7, 5.1 µM in the data set on RPMI-8226, 4.5 µM in the data set with K562 and 9.3 µM in the data set on HEF.

As for `C=C1C2=C(C(=O)N1OC)[C@H](OC(=O)CSc1nc3ccccc3[nH]1)[C@@](C)(O)[C@H](CCCCC)O2`, the 50% inhibitory concentration (IC50) in the data set with A549 [1] was 19 µM; in the data set on HCT-116 [2] it was 8.2 µM; in the data set on PC-3 [3], 6.4 µM; in the data set on THP-1, 5.3 µM; in the data set on Jurkat, 8.9 µM; in the data set on NCI-H929 [4] it was 2 µM. The concentration for half-maximal inhibition (IC50) in the data set on MCF7 turned out to be 16 µM; with RPMI-8226 it was 4.3 µM; in the data set on K562, 9.3 µM; in the data set with HEF, 11 µM.

`C=C1C2=C(C(=O)N1OC)[C@H](OC(=O)CCCCCl)[C@@](C)(O)[C@H](CCCCC)O2`: the half-inhibitory concentration (IC50) with A549 [1] is 12 µM; in the data set with HCT-116 [2], 11 µM; in the data set on PC-3 [3], 9.2 µM; with THP-1 it was 4.6 µM; in the data set with Jurkat it was 4.2 µM; in the data set on NCI-H929 [4] it was 2.5 µM. Besides, the IC50 with MCF7 was 5.4 µM; in the data set with RPMI-8226, 4.3 µM; with K562, 8.5 µM; in the data set on HEF it was 11 µM.

Consider `C=C1C2=C(C(=O)N1OC)[C@H](OC(=O)CSc1nc3ccccc3s1)[C@@](C)(O)[C@H](CCCCC)O2`, for which the IC50 in the data set on A549 [1] was 5.9 µM; in the data set on HCT-116 [2] it was 4.7 µM; in the data set on PC-3 [3], 5 µM; in the data set on THP-1 it was 1.6 µM; with Jurkat, 2.3 µM; with NCI-H929 [4], 0.59 µM. The IC50 came to 6.3 µM with MCF7, 2 µM in the data set with RPMI-8226, 4.3 µM with K562 and 11 µM in the data set on HEF. Moreover, the “Ratio IC50” value is recorded as 1.5 in the data set with NCI-H929 [6], 7 in the data set on A549 [8], 16 in the data set on A549 [9] and 11 with NCI-H929 [10]. In data set [7], the selectivity ratio was 18.6.

With `C=C1C2=C(C(=O)N1OC)[C@H](OC(=O)CCl)[C@@](C)(O)[C@H](CCCCC)O2`, the IC50 worked out at 20 µM with A549 [1]; 2.4 µM in the data set on HCT-116 [2]; 2.4 µM in the data set on PC-3 [3]; 11 µM with THP-1; 9.6 µM in the data set on Jurkat; 3.3 µM with NCI-H929 [4]. In addition, the IC50 in the data set on MCF7 turned out to be 17 µM; in the data set on RPMI-8226 it was 9.7 µM; in the data set with K562 it was 7 µM; with HEF it was 9.1 µM. Also, the selectivity ratio in data set [11] was found to be 3.8. The “Ratio IC50” value with HCT-116 [12] amounted to 20.

With `C=C1C2=C(C(=O)N1OC)[C@H](O)[C@@](C)(O)[C@H](CCCCC)O2`, the IC50 in the data set on A549 [1] turned out to be 41 µM; with HCT-116 [2], 44 µM; in the data set with PC-3 [3], 32 µM; in the data set on THP-1 it was 19 µM; in the data set on Jurkat, 10 µM; in the data set on NCI-H929 [4], 6.5 µM. The IC50 came to 20 µM in the data set with MCF7, 9.3 µM in the data set with RPMI-8226, 20 µM in the data set on K562 and 19 µM in the data set with HEF.

(Values after ChEMBL document CHEMBL4308869, “Towards lead compounds as anti-cancer agents via new phaeosphaeride A derivatives” (Bioorg Med Chem Lett, 2019).)
